According to USRE41065E1, “Alkynl and azido-substituted 4-anilinoquinazolines” (Pfizer, Inc., priority 1995, dated 2009):

system: another carcinoma which does not express the EGF receptor; conditions: athymic nude mice; background statement; cited from earlier work

Compound | growth of carcinoma which does not express the EGF receptor
O=CN/C=C/c1cc(O)ccc1O [erbstatin] | without effect on the growth

system: transplanted human mammary carcinoma which expresses epidermal growth factor receptor tyrosine kinase (EGFR); conditions: athymic nude mice; background statement; cited from earlier work

Compound | growth of transplanted human mammary carcinoma expressing EGFR
O=CN/C=C/c1cc(O)ccc1O [erbstatin] | selectively attenuates the growth

system: not given; conditions: not given

Compound | melting point
C#Cc1cccc(Nc2ncnc3cc(OCCOC)c(OCCSCC(=O)O)cc23)c1.N | 98 to 113 °C (dec.)
C#Cc1cc(Nc2ncnc3cc(OCCOC)c(OCCOC)cc23)ccc1F.Cl | 170 to 190 °C (dec.)
C#Cc1ccc(C)c(Nc2ncnc3cc(OCCOC)c(OCCOC)cc23)c1.Cl | 170 to 185 °C (dec.)
C#Cc1cccc(Nc2ncnc3cc(OCCCl)c(OCCCl)cc23)c1.Cl | 230 to 240 °C (dec.)
C#Cc1cccc(Nc2ncnc3cc(OCCOC)c(OCCCl)cc23)c1.Cl | 215 to 225 °C (dec.)
C#Cc1cccc(Nc2ncnc3cc(OCCOC(C)=O)c(OCCOC(C)=O)cc23)c1 | 137 to 138 °C
C#Cc1cccc(Nc2ncnc3cc(OCCO)c(OCCO)cc23)c1.Cl | 215 to 218 °C (dec.)
C#Cc1cccc(Nc2ncnc3cc(OCCOC)c(OCCOC(C)=O)cc23)c1 | 84 to 87 °C
C#Cc1cccc(Nc2ncnc3cc(OCCCl)c(OCCOC)cc23)c1.Cl | 225 to 235 °C (dec.)
C#Cc1cccc(Nc2ncnc3cc(OCCOC(C)=O)c(OCCOC)cc23)c1 | 134 to 135 °C
C#Cc1cccc(Nc2ncnc3cc(OCCN4CCN(C)CC4)c(OCCOC)cc23)c1.Cl.Cl | 130 to 142 °C (dec.)
C#Cc1cccc(Nc2ncnc3cc(OCCn4ccnc4)c(OCCOC)cc23)c1.Cl.Cl | 220 to 227 °C (dec.)
C#Cc1cccc(Nc2ncnc3cc(OCCOC)c(OCCn4ccnc4)cc23)c1.Cl.Cl | 85 to 100 °C (dec.)
C#Cc1cccc(Nc2ncnc3cc(OCCOC)c(OCCN4CCOCC4)cc23)c1.Cl.Cl | 115 to 130 °C (dec.)
C#Cc1cccc(Nc2ncnc3ccc(C)cc23)c1.Cl | 256 to 257 °C
C#Cc1cccc(Nc2ncnc3cc(OCCSC(C)C(=O)O)c(OCCOC)cc23)c1.N (stereo not shown) | 95 to 103 °C (dec.)
C#Cc1cccc(Nc2ncnc3cc(OCCOC)c(O)cc23)c1.Cl | 135 to 150 °C (dec.)
C#Cc1cccc(Nc2ncnc3cc(OCCn4ccc(=O)cc4)c(OCCOC)cc23)c1.Cl | 240 to 248 °C (dec.)
C#Cc1cccc(Nc2ncnc3cc(OCCOC)c(OCCn4ccc(=O)cc4)cc23)c1.Cl | 155 to 168 °C (dec.)
C#Cc1cccc(Nc2ncnc3cc(OCCCC)c(OCCCC)cc23)c1.Cl | 247 to 248 °C
